The structures appear in SMILES notation.

The target of test [1] is Kappa-type opioid receptor (Cavia porcellus, UniProt P41144).
For test [2], the target named is Delta-type opioid receptor (Sus scrofa, UniProt P79291).
Chain of Delta-type opioid receptor (P79291 whole entry): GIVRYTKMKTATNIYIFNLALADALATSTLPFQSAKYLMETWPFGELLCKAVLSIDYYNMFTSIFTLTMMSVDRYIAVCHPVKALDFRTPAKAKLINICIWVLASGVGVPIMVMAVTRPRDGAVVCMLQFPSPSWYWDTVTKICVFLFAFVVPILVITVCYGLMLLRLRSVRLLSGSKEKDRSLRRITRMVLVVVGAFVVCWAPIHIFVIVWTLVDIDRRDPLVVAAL

Chain of Kappa-type opioid receptor (P41144 whole entry): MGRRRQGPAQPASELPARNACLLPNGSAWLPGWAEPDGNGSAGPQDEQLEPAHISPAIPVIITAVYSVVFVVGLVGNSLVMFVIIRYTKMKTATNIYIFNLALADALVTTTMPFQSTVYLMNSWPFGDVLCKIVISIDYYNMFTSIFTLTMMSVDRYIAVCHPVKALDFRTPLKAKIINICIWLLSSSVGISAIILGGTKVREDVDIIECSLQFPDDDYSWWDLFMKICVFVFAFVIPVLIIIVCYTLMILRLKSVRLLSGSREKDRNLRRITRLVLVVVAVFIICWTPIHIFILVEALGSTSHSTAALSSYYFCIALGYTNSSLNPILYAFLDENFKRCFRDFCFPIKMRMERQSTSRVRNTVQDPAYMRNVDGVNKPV

In the case of `C[C@@H]1[C@@H]2Cc3ccc(O)cc3[C@@]1(C)CCN2CC1CC1` [(SSS)-12-Cyclopropylmethyl-13-methyl-12-aza-tricyclo[9.1.1.0*3,8*]trideca-3(8),4,6-trien-6-ol(cyclazocine)], the Ki (usually the equilibrium dissociation constant of an inhibitor or competing ligand from its target) in test [1] stood at 0.18 nM; in test [2] it was 1.1 nM.
